Test results reported in patent US8642609B2, “Modulators of ATP-binding cassette transporters” (Vertex Pharmaceuticals Incorporated, priority 2003, dated 2014).

Molecular target: T1, ΔF508-CFTR (Homo sapiens, UniProt P13569, DEL508-508)
T1 construct: expressed in transfected cells
Assay: Membrane potential optical assay (FRET/VIPR), identification of correction compounds
Assay type: cell-based
Settings: for Emax: relative efficacy
Summary of the method: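 Corrector screen: FRET voltage-sensor dyes (CC2-DMPE donor, DiSBAC2(3)) report Cl^− efflux-driven depolarization after 10 μM forskolin and 20 μM genistein in Cl^−-free medium. Beforehand, ΔF508-CFTR NIH3T3 fibroblasts received compound for 16 hrs at 37° C; temperature-corrected cells (27° C) served as positive control.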

T1 sequence (P13569 with tags, fused parts or gaps DEL508-508): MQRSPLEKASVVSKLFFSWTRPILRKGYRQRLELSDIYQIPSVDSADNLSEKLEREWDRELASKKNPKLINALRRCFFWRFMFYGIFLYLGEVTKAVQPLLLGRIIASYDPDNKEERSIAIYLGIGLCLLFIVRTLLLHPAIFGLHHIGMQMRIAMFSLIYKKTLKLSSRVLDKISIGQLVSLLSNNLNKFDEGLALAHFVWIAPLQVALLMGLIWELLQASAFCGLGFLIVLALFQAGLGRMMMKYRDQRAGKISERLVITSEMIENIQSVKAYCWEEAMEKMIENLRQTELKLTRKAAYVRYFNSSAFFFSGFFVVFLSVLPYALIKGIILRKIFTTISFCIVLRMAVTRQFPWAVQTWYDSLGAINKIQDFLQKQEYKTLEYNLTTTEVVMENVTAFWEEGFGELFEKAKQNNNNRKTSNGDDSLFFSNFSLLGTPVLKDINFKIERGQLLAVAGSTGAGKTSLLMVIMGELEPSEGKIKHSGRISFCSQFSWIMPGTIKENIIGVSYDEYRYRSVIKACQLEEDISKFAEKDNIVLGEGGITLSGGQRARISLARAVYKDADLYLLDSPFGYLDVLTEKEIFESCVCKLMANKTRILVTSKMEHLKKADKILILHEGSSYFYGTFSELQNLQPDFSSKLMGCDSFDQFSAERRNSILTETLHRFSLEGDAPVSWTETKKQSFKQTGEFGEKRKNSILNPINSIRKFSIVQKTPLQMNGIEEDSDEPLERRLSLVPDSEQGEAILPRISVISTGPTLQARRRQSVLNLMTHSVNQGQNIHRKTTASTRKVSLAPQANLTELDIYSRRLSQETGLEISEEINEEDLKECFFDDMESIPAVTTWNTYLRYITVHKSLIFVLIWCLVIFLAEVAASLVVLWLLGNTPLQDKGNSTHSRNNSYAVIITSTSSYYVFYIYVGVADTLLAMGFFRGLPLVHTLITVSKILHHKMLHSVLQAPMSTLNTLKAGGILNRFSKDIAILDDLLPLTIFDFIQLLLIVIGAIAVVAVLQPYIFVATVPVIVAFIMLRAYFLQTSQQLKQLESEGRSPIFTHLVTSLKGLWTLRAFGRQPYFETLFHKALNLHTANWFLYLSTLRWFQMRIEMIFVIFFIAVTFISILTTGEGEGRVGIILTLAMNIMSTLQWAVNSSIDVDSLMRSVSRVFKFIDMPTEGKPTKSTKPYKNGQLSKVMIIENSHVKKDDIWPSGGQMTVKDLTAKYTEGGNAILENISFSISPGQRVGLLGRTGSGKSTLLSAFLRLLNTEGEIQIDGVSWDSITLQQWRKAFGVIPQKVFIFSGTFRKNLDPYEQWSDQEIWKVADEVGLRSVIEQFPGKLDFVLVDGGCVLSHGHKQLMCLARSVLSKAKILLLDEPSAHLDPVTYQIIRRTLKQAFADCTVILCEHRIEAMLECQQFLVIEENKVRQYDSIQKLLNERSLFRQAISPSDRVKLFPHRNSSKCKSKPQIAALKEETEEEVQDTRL

## CC(c1nc2ccccc2c(=O)n1C)N1CCC(NS(=O)(=O)c2ccc(Cl)cc2)C1 (centres unmarked) [compound 162]
  EC50: 25 to 60 µM
  Emax: < 25%

## COc1ccc2nc(C(C)N3CCN(S(=O)(=O)c4ccccc4)CC3)n(C)c(=O)c2c1 (centres unmarked) [compound 133]
  EC50: 10 to 25 µM
  Emax: 25 to 100%

## CC(c1nc2ccccc2c(=O)n1C)N1CCN(S(=O)(=O)c2ccc(Oc3ccccc3)cc2)CC1 (centres unmarked) [compound 255]
  EC50: 25 to 60 µM
  Emax: < 25%

## CC(c1nc2ccccc2c(=O)n1C)N1CCN(S(=O)(=O)c2ccccc2)CC1 (centres unmarked) [compound 68]
  EC50: 25 to 60 µM
  Emax: 25 to 100%

## COc1ccc(S(=O)(=O)N2CCN(C(C)c3ncc4ccccc4n3)CC2)cc1 (centres unmarked) [compound 312]
  EC50: 25 to 60 µM
  Emax: 25 to 100%

## CCCC(c1nc(N2CCCCC2)c2ccccc2n1)N1CCN(S(=O)(=O)c2ccc(OC)cc2)CC1 (centres unmarked) [compound 339]
  EC50: < 10 µM
  Emax: > 100%

## Cc1ccccc1S(=O)(=O)N1CCN(C(C)c2nc3cc(Cl)ccc3c(=O)n2C)CC1 (centres unmarked) [compound 109]
  EC50: 10 to 25 µM
  Emax: 25 to 100%
